Measurements taken from patent US11117892B2, “Pyrrolo-pyridine derivative compound, method for preparing same, and pharmaceutical composition containing same as active ingredient for prevention or treatment of protein kinase-related diseases” (DAEGU-GYEONGBUK MEDICAL INNOVATION FOUNDATION, priority 2017, dated 2021).

Tests used:
Assay in all cases: scanMAX Kinase assay panel
Type in all cases: binding
Settings in all cases: read-out: % control
[1] = target: RSK4(Kin.Dom.2-C-terminal) (Homo sapiens (Human), UniProt Q9UK32)
Description: (§1) DiscoverX Co. was asked to measure the enzyme (kinase) selectivity, and the experiment was performed using scanMAX™ Kinase assay panel.
(§2) (Example Compound−Positive Control)/(Negative Control−Positive Control)×100 [Equation 1]
(§3) Herein, the positive control indicates the compound showing the % control of 0%, and the negative control indicates DMSO showing the % control of 100%.

[2] = target: NEK3 (Homo sapiens (Human), UniProt P51956)
Description: as §1, §2, §3

[3] = target: CAMKK1 (Homo sapiens (Human), UniProt Q8N5S9)
Description: as §1, §2, §3

[4] = target: RET(V804L) (Homo sapiens (Human), UniProt P07949, V804L)
Description: as §1, §2, §3

[5] = target: CAMK1G (Homo sapiens (Human), UniProt Q96NX5)
Description: as §1, §2, §3

[6] = target: PRKG1 (Homo sapiens (Human), UniProt Q13976)
Description: as §1, §2, §3

[7] = target: DDR2 (Homo sapiens (Human), UniProt Q16832)
Description: as §1, §2, §3

[8] = target: WNK3 (Homo sapiens (Human), UniProt Q9BYP7)
Description: as §1, §2, §3

[9] = target: PYK2 (Homo sapiens (Human), UniProt Q14289)
Description: as §1, §2, §3

[10] = target: FLT3 (Homo sapiens (Human), UniProt P36888)
Description: as §1, §2, §3

[11] = target: ERBB2 (Homo sapiens (Human), UniProt P04626)
Description: as §1, §2, §3

[12] = target: CDKL5 (Homo sapiens (Human), UniProt O76039)
Description: as §1, §2, §3

[13] = target: ACVRL1 (Homo sapiens (Human), UniProt P37023)
Description: as §1, §2, §3

[14] = target: IKK-alpha (Homo sapiens (Human), UniProt O15111)
Description: as §1, §2, §3

[15] = target: ANKK1 (Homo sapiens (Human), UniProt Q8NFD2)
Description: as §1, §2, §3

[16] = target: PIP5K2B (Homo sapiens (Human), UniProt P78356)
Description: as §1, §2, §3

[17] = target: EPHA3 (Homo sapiens (Human), UniProt P29320)
Description: as §1, §2, §3

[18] = target: PRKD2 (Homo sapiens (Human), UniProt Q9BZL6)
Description: as §1, §2, §3

[19] = target: ROS1 (Homo sapiens (Human), UniProt P08922)
Description: as §1, §2, §3

[20] = target: BMPR1A (Homo sapiens (Human), UniProt P36894)
Description: as §1, §2, §3

[21] = target: WEE1 (Homo sapiens (Human), UniProt P30291)
Description: as §1, §2, §3

[22] = target: FGFR1 (Homo sapiens (Human), UniProt P11362)
Description: as §1, §2, §3

[23] = target: PRKR (Homo sapiens (Human), UniProt P19525)
Description: as §1, §2, §3

[24] = target: PKAC-alpha (Homo sapiens (Human), UniProt P17612)
Description: as §1, §2, §3

[25] = target: BIKE (Homo sapiens (Human), UniProt Q9NSY1)
Description: as §1, §2, §3

[26] = target: PAK3 (Homo sapiens (Human), UniProt O75914)
Description: as §1, §2, §3

[27] = target: ULK1 (Homo sapiens (Human), UniProt O75385)
Description: as §1, §2, §3

[28] = target: SRPK3 (Homo sapiens (Human), UniProt Q9UPE1)
Description: as §1, §2, §3

[29] = target: GAK (Homo sapiens (Human), UniProt O14976)
Description: as §1, §2, §3

[30] = target: FLT3(D835H) (Homo sapiens (Human), UniProt P36888, D835H)
Description: as §1, §2, §3

[31] = target: ERK1 (Homo sapiens (Human), UniProt P27361)
Description: as §1, §2, §3

[32] = target: CDKL1 (Homo sapiens (Human), UniProt Q00532)
Description: as §1, §2, §3

[33] = target: S6K1 (Homo sapiens (Human), UniProt P23443)
Description: as §1, §2, §3

[34] = target: TBK1 (Homo sapiens (Human), UniProt Q9UHD2)
Description: as §1, §2, §3

[35] = target: ARK5 (Homo sapiens (Human), UniProt O60285)
Description: as §1, §2, §3

[36] = target: MLK3 (Homo sapiens (Human), UniProt Q16584)
Description: as §1, §2, §3

[37] = target: DCAMKL3 (Homo sapiens (Human), UniProt Q9C098)
Description: as §1, §2, §3

[38] = target: AAK1 (Homo sapiens (Human), UniProt Q2M2I8)
Description: as §1, §2, §3

[39] = target: CIT (Homo sapiens (Human), UniProt O14578)
Description: as §1, §2, §3

[40] = target: NIM1 (Homo sapiens (Human), UniProt Q8IY84)
Description: as §1, §2, §3

BMPR1A, sequence (P36894 24-532): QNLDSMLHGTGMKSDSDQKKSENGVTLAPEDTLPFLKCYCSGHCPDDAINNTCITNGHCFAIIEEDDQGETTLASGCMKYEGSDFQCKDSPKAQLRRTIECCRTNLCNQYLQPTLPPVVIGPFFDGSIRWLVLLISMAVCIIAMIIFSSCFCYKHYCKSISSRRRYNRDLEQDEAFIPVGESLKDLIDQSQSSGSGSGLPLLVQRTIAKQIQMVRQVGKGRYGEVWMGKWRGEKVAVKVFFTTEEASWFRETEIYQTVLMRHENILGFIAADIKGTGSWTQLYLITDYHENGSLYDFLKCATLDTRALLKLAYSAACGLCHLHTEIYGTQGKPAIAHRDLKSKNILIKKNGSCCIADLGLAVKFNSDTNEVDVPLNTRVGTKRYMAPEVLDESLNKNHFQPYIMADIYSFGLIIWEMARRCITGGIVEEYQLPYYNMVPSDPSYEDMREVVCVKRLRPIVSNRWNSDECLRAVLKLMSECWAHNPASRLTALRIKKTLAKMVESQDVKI
PAK3, sequence (O75914 whole entry): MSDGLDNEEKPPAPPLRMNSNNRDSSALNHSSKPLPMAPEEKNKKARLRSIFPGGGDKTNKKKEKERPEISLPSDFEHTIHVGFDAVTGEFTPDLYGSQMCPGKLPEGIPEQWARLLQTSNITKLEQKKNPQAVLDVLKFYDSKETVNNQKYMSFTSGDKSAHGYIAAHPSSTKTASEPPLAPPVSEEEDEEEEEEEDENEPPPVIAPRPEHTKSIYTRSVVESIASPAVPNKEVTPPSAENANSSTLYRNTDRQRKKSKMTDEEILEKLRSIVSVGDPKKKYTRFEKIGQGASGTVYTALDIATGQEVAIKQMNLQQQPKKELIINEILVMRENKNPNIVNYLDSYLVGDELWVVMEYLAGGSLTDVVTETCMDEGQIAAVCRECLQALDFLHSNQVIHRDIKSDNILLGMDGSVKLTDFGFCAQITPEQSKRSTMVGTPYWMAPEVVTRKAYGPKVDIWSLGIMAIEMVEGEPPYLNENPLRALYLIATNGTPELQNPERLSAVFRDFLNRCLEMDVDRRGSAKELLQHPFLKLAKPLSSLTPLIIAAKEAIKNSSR
NIM1, sequence (Q8IY84 whole entry): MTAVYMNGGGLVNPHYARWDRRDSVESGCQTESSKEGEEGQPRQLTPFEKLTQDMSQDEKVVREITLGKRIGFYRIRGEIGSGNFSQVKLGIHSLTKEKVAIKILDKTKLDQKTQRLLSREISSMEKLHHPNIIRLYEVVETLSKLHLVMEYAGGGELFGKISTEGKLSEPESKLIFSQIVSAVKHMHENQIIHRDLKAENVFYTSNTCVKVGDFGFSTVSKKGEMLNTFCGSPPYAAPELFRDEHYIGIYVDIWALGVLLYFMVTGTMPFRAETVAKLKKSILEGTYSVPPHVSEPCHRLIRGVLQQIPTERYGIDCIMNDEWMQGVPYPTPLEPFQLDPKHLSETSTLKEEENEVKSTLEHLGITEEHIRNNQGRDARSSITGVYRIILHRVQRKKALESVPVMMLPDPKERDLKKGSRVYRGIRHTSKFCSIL
NEK3, sequence (P51956 whole entry): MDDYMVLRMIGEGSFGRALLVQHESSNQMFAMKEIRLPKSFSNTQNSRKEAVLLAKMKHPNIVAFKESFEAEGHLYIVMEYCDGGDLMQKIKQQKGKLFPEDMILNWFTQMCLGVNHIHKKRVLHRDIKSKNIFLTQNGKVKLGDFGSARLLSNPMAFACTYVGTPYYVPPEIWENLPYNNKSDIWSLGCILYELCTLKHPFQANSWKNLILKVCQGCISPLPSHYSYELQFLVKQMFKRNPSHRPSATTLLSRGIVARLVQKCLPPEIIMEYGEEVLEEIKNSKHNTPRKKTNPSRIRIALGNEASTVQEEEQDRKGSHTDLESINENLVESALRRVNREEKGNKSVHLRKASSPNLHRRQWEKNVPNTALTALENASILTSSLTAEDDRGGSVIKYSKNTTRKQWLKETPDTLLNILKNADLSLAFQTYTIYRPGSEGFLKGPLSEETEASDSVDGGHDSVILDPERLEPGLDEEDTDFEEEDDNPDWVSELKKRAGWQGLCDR
CDKL1, sequence (Q00532 whole entry): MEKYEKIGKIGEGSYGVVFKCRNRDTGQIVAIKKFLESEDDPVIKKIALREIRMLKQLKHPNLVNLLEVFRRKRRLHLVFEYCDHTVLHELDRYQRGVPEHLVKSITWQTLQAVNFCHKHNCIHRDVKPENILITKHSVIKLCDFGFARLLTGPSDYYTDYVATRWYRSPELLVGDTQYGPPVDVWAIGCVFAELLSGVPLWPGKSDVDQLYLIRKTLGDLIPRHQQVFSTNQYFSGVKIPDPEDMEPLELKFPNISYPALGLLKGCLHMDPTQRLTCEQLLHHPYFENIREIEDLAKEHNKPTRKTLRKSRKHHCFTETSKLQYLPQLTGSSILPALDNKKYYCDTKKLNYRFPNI
ACVRL1, sequence (P37023 22-503): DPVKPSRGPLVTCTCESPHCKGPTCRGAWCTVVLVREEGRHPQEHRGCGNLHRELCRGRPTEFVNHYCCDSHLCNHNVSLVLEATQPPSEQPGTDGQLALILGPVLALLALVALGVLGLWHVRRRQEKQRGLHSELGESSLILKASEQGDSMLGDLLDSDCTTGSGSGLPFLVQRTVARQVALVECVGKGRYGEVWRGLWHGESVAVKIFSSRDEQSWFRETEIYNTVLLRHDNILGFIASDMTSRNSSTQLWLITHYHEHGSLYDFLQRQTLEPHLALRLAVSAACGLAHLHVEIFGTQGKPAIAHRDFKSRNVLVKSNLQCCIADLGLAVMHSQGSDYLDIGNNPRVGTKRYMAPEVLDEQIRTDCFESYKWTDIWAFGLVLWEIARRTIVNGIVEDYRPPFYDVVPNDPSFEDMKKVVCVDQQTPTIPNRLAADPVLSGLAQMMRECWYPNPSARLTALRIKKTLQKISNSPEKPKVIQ
ERK1, sequence (P27361 whole entry): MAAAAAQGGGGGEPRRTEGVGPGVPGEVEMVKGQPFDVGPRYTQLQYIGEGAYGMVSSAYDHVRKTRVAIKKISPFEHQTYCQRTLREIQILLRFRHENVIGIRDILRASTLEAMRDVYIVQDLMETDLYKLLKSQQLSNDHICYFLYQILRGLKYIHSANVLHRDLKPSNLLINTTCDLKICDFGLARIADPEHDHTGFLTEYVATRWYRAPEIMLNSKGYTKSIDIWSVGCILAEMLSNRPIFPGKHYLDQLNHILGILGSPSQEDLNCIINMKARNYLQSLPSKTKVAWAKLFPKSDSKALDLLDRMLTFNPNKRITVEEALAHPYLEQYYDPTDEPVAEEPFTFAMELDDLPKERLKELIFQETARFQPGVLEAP
CAMK1G, sequence (Q96NX5 whole entry): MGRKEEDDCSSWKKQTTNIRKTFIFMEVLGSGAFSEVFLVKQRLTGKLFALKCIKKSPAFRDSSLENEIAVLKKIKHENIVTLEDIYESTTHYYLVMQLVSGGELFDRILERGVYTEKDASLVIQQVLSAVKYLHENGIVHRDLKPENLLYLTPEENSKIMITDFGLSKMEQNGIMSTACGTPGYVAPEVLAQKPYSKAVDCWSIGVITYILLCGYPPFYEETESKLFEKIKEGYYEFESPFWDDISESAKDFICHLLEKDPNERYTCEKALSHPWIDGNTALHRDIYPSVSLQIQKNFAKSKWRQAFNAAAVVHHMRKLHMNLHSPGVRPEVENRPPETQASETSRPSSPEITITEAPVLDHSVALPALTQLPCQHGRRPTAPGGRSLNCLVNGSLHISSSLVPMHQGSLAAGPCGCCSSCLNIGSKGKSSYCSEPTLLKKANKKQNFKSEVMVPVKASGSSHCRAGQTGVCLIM
CAMKK1, sequence (Q8N5S9 whole entry): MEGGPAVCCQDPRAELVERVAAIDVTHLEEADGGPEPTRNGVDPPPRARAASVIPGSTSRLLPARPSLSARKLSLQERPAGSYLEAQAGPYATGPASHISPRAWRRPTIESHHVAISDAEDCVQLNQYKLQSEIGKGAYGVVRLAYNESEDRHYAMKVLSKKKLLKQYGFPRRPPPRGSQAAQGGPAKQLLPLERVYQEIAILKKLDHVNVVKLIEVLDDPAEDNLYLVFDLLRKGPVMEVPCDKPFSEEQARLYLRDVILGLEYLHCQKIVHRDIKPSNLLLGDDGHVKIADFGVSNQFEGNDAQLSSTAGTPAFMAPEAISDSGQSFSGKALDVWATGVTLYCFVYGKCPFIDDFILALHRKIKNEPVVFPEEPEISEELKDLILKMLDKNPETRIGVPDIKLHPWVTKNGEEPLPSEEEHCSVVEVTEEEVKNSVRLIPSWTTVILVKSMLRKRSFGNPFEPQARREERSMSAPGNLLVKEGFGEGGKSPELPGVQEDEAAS
S6K1, sequence (P23443 whole entry): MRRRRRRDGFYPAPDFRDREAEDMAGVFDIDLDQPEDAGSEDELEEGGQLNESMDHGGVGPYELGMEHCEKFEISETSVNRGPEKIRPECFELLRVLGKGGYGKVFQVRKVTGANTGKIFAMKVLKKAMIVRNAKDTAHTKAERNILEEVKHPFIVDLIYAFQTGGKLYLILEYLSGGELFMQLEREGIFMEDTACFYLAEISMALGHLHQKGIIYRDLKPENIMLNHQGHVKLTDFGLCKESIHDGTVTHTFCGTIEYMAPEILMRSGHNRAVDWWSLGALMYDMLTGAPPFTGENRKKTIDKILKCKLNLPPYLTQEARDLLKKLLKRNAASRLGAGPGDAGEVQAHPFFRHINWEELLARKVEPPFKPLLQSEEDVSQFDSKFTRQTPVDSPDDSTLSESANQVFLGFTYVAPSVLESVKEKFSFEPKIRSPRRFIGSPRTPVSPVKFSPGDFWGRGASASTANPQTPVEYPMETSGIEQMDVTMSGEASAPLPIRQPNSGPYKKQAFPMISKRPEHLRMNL

SMILES | remaining binding at 1 µM [1] | remaining binding at 1 µM [2] | remaining binding at 1 µM [3] | remaining binding at 1 µM [4] | remaining binding at 1 µM [5] | remaining binding at 1 µM [6] | remaining binding at 1 µM [7] | remaining binding at 1 µM [8] | remaining binding at 1 µM [9] | remaining binding at 1 µM [10] | remaining binding at 1 µM [11] | remaining binding at 1 µM [12] | remaining binding at 1 µM [13] | remaining binding at 1 µM [14] | remaining binding at 1 µM [15] | remaining binding at 1 µM [16] | remaining binding at 1 µM [17] | remaining binding at 1 µM [18] | remaining binding at 1 µM [19] | remaining binding at 1 µM [20] | other results
CCNc1cc(Nc2ccc(C(=O)N3CCC(N4CCOCC4)CC3)cc2OC)nc2[nH]cc(C#N)c12 [Example 18, 4-(ethylamino)-6-((2-methoxy-4-(4-morpholinopiperidine-1-carbonyl)phenyl)amino)-1H-pyrrolo[2,3-b]pyridine-3-carbonitrile] | 71% | 87% | 70% | 97% | 71% | 64% | 98% | 82% | 60% | 83% | 99% | 100% | 80% | 44% | 78% | 87% | 93% | 2% | 83% | 74% | remaining binding at 1 µM [21]: 100%; remaining binding at 1 µM [22]: 87%; remaining binding at 1 µM [23]: 95%; remaining binding at 1 µM [24]: 70%; remaining binding at 1 µM [25]: 90%; remaining binding at 1 µM [26]: 93%; remaining binding at 1 µM [27]: 78%; remaining binding at 1 µM [28]: 96%; remaining binding at 1 µM [29]: 15%; remaining binding at 1 µM [30]: 89%; remaining binding at 1 µM [31]: 100%; remaining binding at 1 µM [32]: 89%; remaining binding at 1 µM [33]: 70%; remaining binding at 1 µM [34]: 76%; remaining binding at 1 µM [35]: 94%; remaining binding at 1 µM [36]: 99%; remaining binding at 1 µM [37]: 84%; remaining binding at 1 µM [38]: 69%; remaining binding at 1 µM [39]: 71%; remaining binding at 1 µM [40]: 81%
CCNc1cc(Nc2ccc(C(=O)N3CCC(N4CCOCC4)CC3)cc2OC)nc2[nH]cc(C(F)(F)F)c12 [Example 57, (4-((4-(ethylamino)-3-(trifluoromethyl)-1H-pyrrolo[2,3-b]pyridin-6-yl)amino)-3-methoxyphenyl) (4-morpholinopiperidin-1-yl)methanone] | 80% | 93% | 59% | 91% | 63% | 98% | 91% | 100% | 76% | 100% | 73% | 91% | 89% | 100% | 100% | 100% | 100% | 83% | 69% | 80% | remaining binding at 1 µM [21]: 100%; remaining binding at 1 µM [22]: 87%; remaining binding at 1 µM [23]: 93%; remaining binding at 1 µM [24]: 100%; remaining binding at 1 µM [25]: 85%; remaining binding at 1 µM [26]: 83%; remaining binding at 1 µM [27]: 94%; remaining binding at 1 µM [28]: 100%; remaining binding at 1 µM [29]: 41%; remaining binding at 1 µM [30]: 100%; remaining binding at 1 µM [31]: 98%; remaining binding at 1 µM [32]: 63%; remaining binding at 1 µM [33]: 100%; remaining binding at 1 µM [34]: 85%; remaining binding at 1 µM [35]: 94%; remaining binding at 1 µM [36]: 80%; remaining binding at 1 µM [37]: 88%; remaining binding at 1 µM [38]: 54%; remaining binding at 1 µM [39]: 66%; remaining binding at 1 µM [40]: 100%
